The text below walks through data of US7531543B2, “Phenylpiperazine cycloalkanol derivatives and methods of their use” (Wyeth, priority 2003, dated 2009).

Structures can show the parent of a compound that is named as a salt.

The target of the first assay is T1, human hNET (Homo sapiens, UniProt P23975).
T1 construct: expressed in transfected cells; host or cells: MDCK-Net6 (MDCK cells stably transfected with hNET)
T1 sequence (P23975 whole entry): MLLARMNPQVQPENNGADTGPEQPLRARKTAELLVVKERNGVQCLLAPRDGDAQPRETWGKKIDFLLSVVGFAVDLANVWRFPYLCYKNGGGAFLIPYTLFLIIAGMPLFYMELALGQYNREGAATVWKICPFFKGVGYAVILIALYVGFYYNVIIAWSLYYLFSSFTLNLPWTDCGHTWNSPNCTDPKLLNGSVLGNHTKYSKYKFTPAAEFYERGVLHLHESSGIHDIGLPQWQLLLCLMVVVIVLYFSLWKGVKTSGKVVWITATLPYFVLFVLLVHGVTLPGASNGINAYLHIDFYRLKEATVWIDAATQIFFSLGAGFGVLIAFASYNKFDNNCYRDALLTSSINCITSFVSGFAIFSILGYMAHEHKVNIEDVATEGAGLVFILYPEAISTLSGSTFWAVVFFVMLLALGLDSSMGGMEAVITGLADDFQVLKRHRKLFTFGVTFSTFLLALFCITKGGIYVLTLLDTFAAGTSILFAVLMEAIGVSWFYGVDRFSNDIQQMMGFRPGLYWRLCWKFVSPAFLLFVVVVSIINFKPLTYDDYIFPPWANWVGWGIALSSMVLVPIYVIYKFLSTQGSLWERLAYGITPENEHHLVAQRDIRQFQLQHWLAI
The assay is described as follows: Norepinephrine (NE) uptake assay in MDCK-Net6 cells. Type of assay: cell-based. The conditions noted are these: 1 μM test compound; [3H]NE uptake, MDCK-Net6 cells stably transfected with hNET. On the procedure: MDCK-Net6 cells, stably transfected with human hNET (Pacholczyk, T., R. D. Blakely, and S. G. Amara, Nature, 1991, 350(6316): p. 350-4) were cultured in growth medium containing high glucose DMEM (Gibco, Cat. No. 11995), 10% FBS (dialyzed, heat-inactivated, US Bio-Technologies, Lot FBD1129HI) and 500 µg/ml G418 (Gibco, Cat. No. 10131). Cells were plated at 300,000/T75 flask and cells were split twice weekly. The JAR cell line (human placental choriocarcinoma) was purchased from ATCC (Cat. No. HTB-144). The cells were cultured in growth medium containing RPMI 1640 (Gibco, Cat. No. 72400), 10% FBS (Irvine, Cat. No. 3000), 1% sodium pyruvate (Gibco, Cat. No. 1136) and 0.25% glucose. Cells were plated at 250,000 cells/T75 flask and split twice weekly. For all assays, cells were plated in Wallac 96-well sterile plates (PerkinElmer, Cat. No. 3983498).
Norepinephrine (NE) Uptake Assay
On day 1, cells were plated at 3,000 cells/well in growth medium and maintained in a cell incubator (37° C., 5% CO2). On day 2, growth medium was replaced with 200 μl of assay buffer (25 mM HEPES; 120 mM NaCl; 5 mM KCl; 2.5 mM CaCl2; 1.2 mM MgSO4; 2 mg/ml glucose (pH 7.4, 37° C.)) containing 0.2 mg/ml ascorbic acid and 10 μM pargyline. Plates containing cells with 200 μl of assay buffer were equilibrated for 10 minutes at 37° C. prior to addition of compounds. A stock solution of desipramine was prepared in DMSO (10 mM) and delivered to triplicate wells containing cells for a final test concentration of 1 μM. Data from these wells were used to define non-specific NE uptake (minimum NE uptake). Test compounds were prepared in DMSO (10 mM) and diluted in assay buffer according to test range (1 to 10,000 nM). Twenty-five microliters of assay buffer (maximum NE uptake) or test compound were added directly to triplicate wells containing cells in 200 μl of assay buffer. The cells in assay buffer with test compounds were incubated for 20 minutes at 37° C. To initiate the NE uptake, [^3H]NE diluted in assay buffer (120 nM final assay concentration) was delivered in 25 μl aliquots to each well and the plates were incubated for 5 minutes (37° C.). The reaction was terminated by decanting the supernatant from the plate. The plates containing cells were washed twice with 200 μl assay buffer (37° C.) to remove free radioligand. The plates were then inverted, left to dry for 2 minutes, then reinverted and air-dried for an additional 10 minutes. The cells were lysed in 25 μl of 0.25 N NaOH solution (4° C.), placed on a shake table and vigorously shaken for 5 minutes. After cell lysis, 75 μl of scintillation cocktail was added to each well and the plates were sealed with film tape. The plates were returned to the shake table and vigorously shaken for a minimum of 10 minutes to ensure adequate partitioning of organic and aqueous solutions. The plates were counted in a Wallac Microbeta counter (PerkinElmer) to collect the raw cpm data.
For each experiment, a data stream of cpm values collected from the Wallac Microbeta counter was downloaded to a Microsoft Excel statistical application program. Calculations of EC50 values were made using the transformed-both-sides logistic dose response program written by Wyeth Biometrics Department. The statistical program uses mean cpm values from wells representing maximum binding or uptake (assay buffer) and mean cpm values from wells representing minimum binding or uptake ((1 μM desipramine (hNET) or 1 μM paroxetine (hSERT)). Estimation of the EC50 value was completed on a log scale and the line was fit between the maximum and minimum binding or uptake values. All graphic data representation was generated by normalizing each data point to a mean percent based on the maximum and minimum binding or uptake values. The EC50 values reported from multiple experiments were calculated by pooling the raw data from each experiment and analyzing the pooled data as one experiment.
As to `CN1CCN(CC(c2ccc(F)cc2)C2(O)CCC2)CC1` (stereo not shown) [Example 32, 1-[1-(4-fluorophenyl)-2-(4-methylpiperazin-1-yl)ethyl]cyclobutanol dihydrochloride], the inhibition at 1 µM was -10%.

Consider `OC1(C(CN2CCNCC2)c2ccccc2Br)CCCCC1` (stereo not shown) [Example 33, 1-[1-(2-bromophenyl)-2-piperazin-1-ylethyl]cyclohexanol dihydrochloride], for which the inhibition at 1 µM came out at 35%.

Turning to `OC1(C(CN2CCNCC2)c2cccc(Cl)c2)CCCCCCC1` (stereo not shown) [Example 36, 1-[1-(3-chlorophenyl)-2-piperazin-1-ylethyl]cyclooctanol dihydrochloride], the inhibition at 1 µM is 28%.

As to `OC1(C(CN2CCNCC2)c2cccc(Br)c2)CCCCCCC1` (stereo not shown) [Example 37, 1-[1-(3-bromophenyl)-2-piperazin-1-ylethyl]cyclooctanol dihydrochloride], the inhibition at 1 µM came to 28%.

With `COc1ccc(C(CN2CCNCC2)C2(O)CCCCCCC2)cc1Br` (stereo not shown) [Example 38, 1-[1-(3-bromo-4-methoxyphenyl)-2-piperazin-1-ylethyl]cyclooctanol dihydrochloride], the inhibition at 1 µM worked out at 42%.

With `CN1CCN(CC(c2cccc(Cl)c2)C2(O)CCCCCCC2)CC1` (stereo not shown) [Example 39, 1-[1-(3-chlorophenyl)-2-(4-methylpiperazin-1-yl)ethyl]cyclooctanol dihydrochloride], the inhibition at 1 µM was determined as 42%.

Consider `CN1CCN(CC(c2cccc(Br)c2)C2(O)CCCCCCC2)CC1` (stereo not shown) [Example 40, 1-[1-(3-bromophenyl)-2-(4-methylpiperazin-1-yl)ethyl]cyclooctanol dihydrochloride], for which the inhibition at 1 µM worked out at 44%.

For `COc1ccc(C(CN2CCN(C)CC2)C2(O)CCCCCCC2)cc1Br` (stereo not shown) [Example 41, 1-[1-(3-bromo-4-methoxyphenyl)-2-(4-methylpiperazin-1-yl)ethyl]cyclooctanol dihydrochloride], the inhibition at 1 µM was 48%.

The assay is the same for the next values; noted with them: [3H]NE uptake, MDCK-Net6 cells stably transfected with hNET; test range 1 to 10,000 nM.
The compound `OC1([C@H](CN2CCNCC2)c2cccc(Cl)c2)CCCCC1` [Example 34, 1-[(1S)-1-(3-chlorophenyl)-2-piperazin-1-ylethyl]cyclohexanol dihydrochloride] showed an EC50 of 0.025 µM.

Consider `OC1([C@@H](CN2CCNCC2)c2cccc(Cl)c2)CCCCC1` [Example 35, 1-[(1R)-1-(3-chlorophenyl)-2-piperazin-1-ylethyl]cyclohexanol dihydrochloride], for which the midpoint of the response, the EC50, lay at 0.54 µM.
